Test results as given in ChEMBL document CHEMBL1145073, “DNA binding ligands targeting drug-resistant bacteria: structure, activity, and pharmacology” (J Med Chem, 2003).
Converted amounts (≈) assume the structure as drawn.

How the values were obtained:
Staphylococcus aureus [1] = test: In vitro antimicrobial activity against MSSA 13709; format: functional
[2] = In vitro antimicrobial activity against penicillin-intermediate Streptococcus pneumoniae 49619; format: functional
Enterococcus faecalis [3] = test: In vitro antimicrobial activity against vancomycin-susceptible Enterococcus faecalis 29212; format: functional
Bacillus cereus = test: In vitro antimicrobial activity against Bacillus cereus 11778; format: functional
Nucleic Acid = test: Apparent binding affinity against DNA (5'-ACAATTAA-3') was determined using DNase I footprinting titration method; format: nucleic-acid assay; settings: read-out: Kd app
Staphylococcus aureus [4] = test: In vitro antimicrobial activity against methicillin resistant Staphylococcus aureus 27660; format: functional
[5] = In vitro antimicrobial activity against penicillin resistant Streptococcus pneumoniae 51422; format: functional
Enterococcus faecalis [6] = test: In vitro antimicrobial activity against vancomycin-resistant Enterococcus faecalis 51559; format: functional
Candida albicans = test: In vitro antimicrobial activity against Candida albicans 38247; format: functional
Mus musculus [7] = test: Acute tolerability of compound in 5 ICR female mice after intravenous administration was determined; Lethality 1/5
Mus musculus [8] = test: Acute tolerability of compound in 4 ICR female mice after intravenous administration was determined; No adverse effects; format: functional, organism-based
Mus musculus [9] = test: Acute tolerability of compound in 4 ICR female mice after intravenous administration was determined; no adverse effects; format: functional, organism-based
Mus musculus [10] = test: Acute tolerability of compound […] female mice after intravenous administration was determined; Lethality 5/5; format: functional, organism-based
Mus musculus [11] = test: Acute tolerability of compound […] female mice after intravenous administration was determined; 5/5 lethargy; format: functional, organism-based
Enterococcus faecalis [12] = test: In vitro antimicrobial activity against vancomycin-resistant Enterococcus faecalis 51559
Mus musculus [13] = test: Acute tolerability of compound […] female mice after intravenous administration was determined; Lethality 3/5; format: functional, organism-based
Mus musculus [14] = test: Acute tolerability of compound in 4 ICR female mice after intravenous administration was determined; Lethality 1/4; format: functional, organism-based
[15] = Candida albicans, read-out: MIC

SMILES | MIC [2] [µg/mL] | MIC (Enterococcus faecalis [3]) [µg/mL] | MIC (Bacillus cereus) [µg/mL] | Kd (Nucleic Acid) [nM] | MIC (Staphylococcus aureus [4]) [µg/mL] | MIC [5] [µg/mL] | MIC (Candida albicans; [15]) [µg/mL] | also measured
Cn1cc(NC(=O)c2cc(NC(=O)c3cc(-c4ccc(F)cc4Cl)cn3C)cn2C)cc1C(=O)NCCN1CCOCC1 | 4 (≈ 6.56 µM) | 8 (≈ 13.1 µM) |  |  |  |  |  | MIC (Staphylococcus aureus [1]): 16 µg/mL (≈ 26.2 µM)
Cn1cc(NC(=O)c2cc(NC(=O)c3cc(NC(=O)c4sccc4Cl)cn3C)cn2C)cc1C(=O)NCCN1CCC(F)CC1 | 0.031 (≈ 0.0472 µM) | 1 (≈ 1.52 µM) | 1 (≈ 1.52 µM) | 5 | 1 (≈ 1.52 µM) | 0.125 (≈ 0.19 µM) | > 32 | MIC (Enterococcus faecalis [6]): 0.5 µg/mL (≈ 0.761 µM); Acute tolerability (Mus musculus [7]): Lethality 1/5
CN(C)CCCNC(=O)c1cc(NC(=O)c2cc(NC(=O)c3cc(NC(=O)c4sccc4Cl)cn3C)cn2C)cn1C | 4 (≈ 6.52 µM) | 16 (≈ 26.1 µM) |  | 5 | 8 (≈ 13 µM) |  |  | 
Cn1cc(NC(=O)c2cc(NC(=O)c3cc(NC(=O)c4sccc4Cl)cn3C)cn2C)cc1C(=O)NCCc1ccccn1 | 2 (≈ 3.16 µM) | 2 (≈ 3.16 µM) |  | 100 | 2 (≈ 3.16 µM) |  |  | 
Cn1cc(NC(=O)c2cc(NC(=O)c3cc(NC(=O)c4sccc4Cl)cn3C)cn2C)cc1C(=O)NCCCN1CCOCC1 | 2 (≈ 3.05 µM) | 4 (≈ 6.11 µM) | 8 (≈ 12.2 µM) | 71 | 8 (≈ 12.2 µM) | 8 (≈ 12.2 µM) | > 32 | MIC (Enterococcus faecalis [6]): 8 µg/mL (≈ 12.2 µM)
Cn1cc(NC(=O)c2cc(NC(=O)c3cc(NC(=O)c4sc5cc(F)ccc5c4Cl)cn3C)cn2C)cc1C(=O)NCCN1CCOCC1 | 0.125 (≈ 0.176 µM) | 0.25 (≈ 0.353 µM) | 0.25 (≈ 0.353 µM) |  |  |  | > 32 | Acute tolerability (Mus musculus [8]): No adverse effects
Cn1cc(NC(=O)c2cc(NC(=O)c3cc(-c4sccc4Cl)cn3C)cn2C)cc1C(=O)NCCN1CCOCC1 | 0.125 (≈ 0.209 µM) | 1 (≈ 1.67 µM) | 1 (≈ 1.67 µM) | 20 | 4 (≈ 6.69 µM) | 0.125 (≈ 0.209 µM) |  | Acute tolerability (Mus musculus [9]): no adverse effects; MIC (Enterococcus faecalis [6]): 1 µg/mL (≈ 1.67 µM); MIC (Candida albicans): > 32 µg/mL
Cn1cc(NC(=O)c2cc(NC(=O)c3cc(NC(=O)c4sccc4Cl)cn3C)cn2C)cc1C(=O)NCCN1CCC(F)(F)CC1 | 0.5 (≈ 0.741 µM) | 2 (≈ 2.96 µM) |  | 50 | 2 (≈ 2.96 µM) |  |  | 
Cn1cc(NC(=O)c2cc(NC(=O)c3cc(-c4nccs4)cn3C)cn2C)cc1C(=O)NCCN1CCOCC1 | > 32 | > 32 |  |  |  |  |  | MIC (Staphylococcus aureus [1]): > 32 µg/mL
Cc1cnc(-c2cc(C(=O)Nc3cc(C(=O)Nc4cc(C(=O)NCCN5CCOCC5)n(C)c4)n(C)c3)n(C)c2)cn1 | 0.25 (≈ 0.436 µM) | 0.5 (≈ 0.872 µM) | 1 (≈ 1.74 µM) |  | 2 (≈ 3.49 µM) | 0.25 (≈ 0.436 µM) | > 32 | Acute tolerability (Mus musculus [10]): Lethality 5/5; MIC (Enterococcus faecalis [6]): 4 µg/mL (≈ 6.97 µM)
Cn1cc(NC(=O)c2cc(NC(=O)c3cc(NC(=O)c4sccc4Cl)cn3C)cn2C)cc1C(=O)NCCN1CCCCC1 | 0.25 (≈ 0.391 µM) | 0.5 (≈ 0.782 µM) | 0.5 (≈ 0.782 µM) | 5 | 0.5 (≈ 0.782 µM) | 2 (≈ 3.13 µM) | 32 (≈ 50.1 µM) | Acute tolerability (Mus musculus [11]): 5/5 lethargy; MIC (Enterococcus faecalis [12]): 2 µg/mL (≈ 3.13 µM)
Cn1cc(NC(=O)c2cc(NC(=O)c3cc(NC(=O)c4sccc4Cl)cn3C)cn2C)cc1C(=O)NCCN1CCSCC1 | 0.125 (≈ 0.19 µM) | 0.5 (≈ 0.761 µM) | 0.5 (≈ 0.761 µM) | < 1 | 1 (≈ 1.52 µM) | 0.062 (≈ 0.0943 µM) | > 32 | Acute tolerability (Mus musculus [8]): No adverse effects; MIC (Enterococcus faecalis [6]): 2 µg/mL (≈ 3.04 µM)
Cn1cc(NC(=O)c2cc(NC(=O)c3cc(NC(=O)c4sccc4Cl)cn3C)cn2C)cc1C(=O)NCCN1CCC(O)CC1 | 2 (≈ 3.05 µM) | 4 (≈ 6.11 µM) |  |  | 4 (≈ 6.11 µM) |  |  | 
Cn1cc(NC(=O)c2cc(NC(=O)c3cc(-c4ccccc4Cl)cn3C)cn2C)cc1C(=O)NCCN1CCOCC1 | 32 (≈ 54 µM) | 16 (≈ 27 µM) |  |  | 32 (≈ 54 µM) |  |  | 
Cn1cc(NC(=O)c2cc(NC(=O)c3cc(-c4cc5ccccc5[nH]4)cn3C)cn2C)cc1C(=O)NCCN1CCOCC1 | 2 (≈ 3.35 µM) | 8 (≈ 13.4 µM) |  |  | 8 (≈ 13.4 µM) |  |  | 
Cc1cccnc1-c1cc(C(=O)Nc2cc(C(=O)Nc3cc(C(=O)NCCN4CCOCC4)n(C)c3)n(C)c2)n(C)c1 | 1 (≈ 1.75 µM) | 8 (≈ 14 µM) |  |  | 18 (≈ 31.4 µM) |  |  | 
Cn1cc(NC(=O)c2cc(NC(=O)c3cc(NC(=O)c4sccc4Cl)cn3C)cn2C)cc1C(=O)NCCCN1CCCCC1 | 4 (≈ 6.12 µM) | 4 (≈ 6.12 µM) | 8 (≈ 12.2 µM) | 50 | 8 (≈ 12.2 µM) | 16 (≈ 24.5 µM) | > 32 | Acute tolerability (Mus musculus [13]): Lethality 3/5; MIC (Enterococcus faecalis [12]): 16 µg/mL (≈ 24.5 µM)
Cn1cc(NC(=O)c2cc(NC(=O)c3cc(-c4cccc(Cl)c4)cn3C)cn2C)cc1C(=O)NCCN1CCOCC1 | 8 (≈ 13.5 µM) | 8 (≈ 13.5 µM) |  |  | 8 (≈ 13.5 µM) |  |  | 
Cn1cc(NC(=O)c2cc(NC(=O)c3cc(NC(=O)c4cn5ccsc5n4)cn3C)cn2C)cc1C(=O)NCCN1CCOCC1 | 0.031 (≈ 0.0479 µM) | 0.5 (≈ 0.773 µM) | 2 (≈ 3.09 µM) |  |  |  | > 32 | Acute tolerability (Mus musculus [14]): Lethality 1/4
CN(C)CC(C)(C)CNC(=O)c1cc(NC(=O)c2cc(NC(=O)c3cc(NC(=O)c4cc5ccccc5cn4)cn3C)cn2C)cn1C | 1 (≈ 1.53 µM) | 1 (≈ 1.53 µM) |  |  | 1 (≈ 1.53 µM) |  |  | 
Cn1cc(NC(=O)c2cc(NC(=O)c3cc(-c4cc(Cl)c(Cl)s4)cn3C)cn2C)cc1C(=O)NCCN1CCOCC1 | 4 (≈ 6.32 µM) | 8 (≈ 12.6 µM) |  |  | 8 (≈ 12.6 µM) |  |  | 
Cn1cc(NC(=O)c2cc(NC(=O)c3cc(-c4ccc(Cl)cc4F)cn3C)cn2C)cc1C(=O)NCCN1CCOCC1 | 0.25 (≈ 0.41 µM) | 0.5 (≈ 0.82 µM) | 0.5 (≈ 0.82 µM) | 0.1 | 2 (≈ 3.28 µM) | 0.062 (≈ 0.102 µM) | > 32 | Acute tolerability (Mus musculus [10]): Lethality 5/5; MIC (Enterococcus faecalis [6]): 0.5 µg/mL (≈ 0.82 µM)
Cn1cc(NC(=O)c2cc(NC(=O)c3cc(NC(=O)c4cc5ccccc5cn4)cn3C)cn2C)cc1C(=O)NCCN1CCCCC1 | 0.031 (≈ 0.0477 µM) | 0.062 (≈ 0.0954 µM) |  |  | 0.25 (≈ 0.385 µM) |  |  | 
COc1ccsc1-c1cc(C(=O)Nc2cc(C(=O)Nc3cc(C(=O)NCCN4CCOCC4)n(C)c3)n(C)c2)n(C)c1 | > 32 | > 32 |  |  | 32 (≈ 53.9 µM) |  |  | 
Cn1cc(NC(=O)c2cc(NC(=O)c3cc(NC(=O)c4cc5ccccc5cn4)cn3C)cn2C)cc1C(=O)NCCN1CCSCC1 | 0.031 (≈ 0.0464 µM) | 0.25 (≈ 0.374 µM) | 0.25 (≈ 0.374 µM) | 1 | 0.125 (≈ 0.187 µM) | 0.062 (≈ 0.0928 µM) | > 32 | Acute tolerability (Mus musculus [8]): No adverse effects; MIC (Enterococcus faecalis [6]): 0.125 µg/mL (≈ 0.187 µM)
Cn1cc(NC(=O)c2cc(NC(=O)c3cc(-c4ccc(F)cc4F)cn3C)cn2C)cc1C(=O)NCCN1CCOCC1 | 0.125 (≈ 0.211 µM) | 1 (≈ 1.68 µM) |  |  | 2 (≈ 3.37 µM) |  |  | 
Cn1cc(NC(=O)c2cc(NC(=O)c3cc(NC(=O)c4cc5ccccc5cn4)cn3C)cn2C)cc1C(=O)NCCN1CCC(F)CC1 | 0.031 (≈ 0.0464 µM) | 0.125 (≈ 0.188 µM) |  |  | 0.25 (≈ 0.374 µM) |  |  | 
Cn1cc(NC(=O)c2cc(NC(=O)c3cc(-c4cccc(F)c4)cn3C)cn2C)cc1C(=O)NCCN1CCOCC1 | 16 (≈ 27.8 µM) | 32 (≈ 55.6 µM) |  |  | 32 (≈ 55.6 µM) |  |  | 
Cn1cc(NC(=O)c2cc(NC(=O)c3cc(NC(=O)c4sccc4Cl)cn3C)cn2C)cc1C(=O)NCCN1CCCC1 | 2 (≈ 3.2 µM) | 16 (≈ 25.6 µM) |  | 2 | 8 (≈ 12.8 µM) |  |  | 
Cn1cc(NC(=O)c2cc(NC(=O)c3cc(-c4ccc(F)cc4)cn3C)cn2C)cc1C(=O)NCCN1CCOCC1 | 2 (≈ 3.47 µM) | 8 (≈ 13.9 µM) |  |  | 16 (≈ 27.8 µM) |  |  | 
